These results are taken from patent US11247998B2, “Piperazine heteroaryl derivative, preparation method therefor and use of same in medicine” (priority 2017, dated 2022).

Like-named read-outs stand apart in the source and are kept apart here. Bounds are passed on as bounds.

Data set [1] has as its system HBV DNA replication in HepG2.2.15 cells. In words: In vitro anti-HBV activity test (quantitative assay of intracellular HBV DNA), HepG2.2.15 cells, quantitative PCR. The following applies: HBV DNA by quantitative PCR; for EC50: compound treatment Day 2 to Day 8; for Emax: read-out: Emax (effect value of the compound to maximally inhibit HBV DNA replication). The class given is cell-based, hepatitis B virus (HBV). The protocol: In vitro anti-HBV activity test of the compound of the present invention (quantitative assay of intracellular HBV DNA)
HepG2.2.15 cell is a stable expression cell line that has integrated HBV genome.
Virus particles containing HBV DNA can be synthesized by replication, transcription and encapsidation in the cells, and then secreted. In this study, the quantitative analysis of HBV DNA produced by HepG2.2.15 in vitro proliferation was carried out by quantitative PCR method, thereby determining the activity of the compound of the present invention on inhibiting the HBV DNA replication by inhibiting the assembly of HBV capsid protein.
HepG2.2.15 cells were cultured in DMEM/high glucose medium (10% FBS, […] G418) and passaged every three days. On the day of the experiment, a cell suspension was prepared with fresh cell culture medium, and incubated in a 96-well plate (Corning, #3599) at 40,000 cells/well, at 5% carbon dioxide, 37° C. On Day 2, the compound was dissolved in pure DMSO at a concentration of 20 mM, and then the first concentration of 2 mM was formulated with DMSO, and diluted in 4-fold concentration gradient to 8 concentrations. A control well was added with 90 μl of DMSO. The compound solution was diluted 200-fold with DMEM/high glucose medium. The cell culture plate inoculated on Day 1 was taken out. The medium in the wells was removed by a negative pressure suction device, and the formulated medium containing the compound at each concentration was added respectively to each well at 200 μl/well. The plate was incubated at 37° C. for 72 hours. On Day 5, the medium of the cultured cells was replaced with fresh medium containing the same compound in the same way as Day 2, and then the plate was incubated at 37° C. for 72 hours. On Day 8, the cell culture plate was taken out, centrifuged at 300 g for 3 minutes, and the culture supernatant was collected at 200 μl/well. HBV DNA was extracted from the cell culture supernatant with Qiagen automatic DNA extraction device, and the specific method referred to the instructions of the reagents and instruments. Finally, the extracted DNA was eluted with DNA elution buffer at 100 μl/well. The extracted DNA was subjected to quantitative PCR analysis of HBV DNA using Hepatitis B virus nucleic acid quantitative detection kit (Triplex International Biosciences Co., Ltd.), and the specific method referred to the instruction of the kit. The quantitative standard curve was obtained with the standard sample provided in the kit, and the experiments were performed in parallel. Quantitative conversion of each sample was carried out according to the standard curve. Finally, the EC50 value of the compound was calculated with Graphpad Prism software according to each concentration of the compound and the corresponding DNA value.
The in vitro activity of the compound of the present invention on inhibiting the HBV DNA replication by inhibiting the assembly of HBV capsid protein was determined by the above experiment.

Data set [2] can be described thus: Effect on in vitro proliferation of HepG2 cells (CellTiter-Glo). The class given is cell-based. The following applies: human; HepG2 cells, 72 hours, CellTiter-Glo. The protocol:
(§1) Test Example 2. Effect of the Compound of the Present Invention on In Vitro Proliferation of HepG2 Cells
(§2) HepG2 cells in logarithmic growth phase were taken and digested with trypsin to prepare a cell suspension, which was incubated in a 96-well plate (transparent bottom white 96-well plate, PerkinElmer) at 6,000 cells/well, at 5% carbon dioxide, 37° C. for 16-20 hours. On Day 2, the compound was dissolved in pure DMSO at a concentration of 20 mM. The compound was diluted in 3-fold concentration gradient using an automatic pipetting station (Bravo), 8 concentration points for each compound, and the control well was DMSO. The compound formulated in DMSO at each concentration point was diluted 200-fold with EMEM (containing 10% FBS) medium. The cell culture plate inoculated on Day 1 was taken out. The medium in the wells was removed by a negative pressure suction device, and the formulated medium containing the compound at each concentration was added respectively to each well at 100 μl/well. The plate was incubated at 37° C. for 72 hours. On Day 5, the 96-well cell culture plate was taken out, and freshly formulated CellTiter Glo was added to each well at 100 μl/well. The 96-well plate was left to stand for 5-10 minutes, the bottom was then sealed with a white bottom sealing film (PerkinElmer). The plate was placed in the microplate reader to measure the luminescence signal. The CC50 value of the compound was calculated with Graphpad Prism software according to each concentration of the compound and the corresponding proliferation inhibition signal value.
(§3) The inhibition effect of the compound of the present invention on in vitro proliferation of HepG2 cells was determined by the above experiment.
For orientation: Cellular ATP, detected with luciferase, serves as a proxy for viable cell number.

Data set [3] can be described thus: Pharmacokinetics assay in rats after intragastrical administration (LC/MS/MS of plasma). The conditions noted are these: SD rats, 2 mg/kg; for Vd/F / AUC / bioavailability / CL/F / half-life / Cmax / MRT: both sexes, rat, plasma, po; for Vd/F: read-out: Apparent distribution volume Vz/F; for AUC: read-out: Area under curve AUC; for bioavailability: read-out: Bioavailability (%) F %; for CL/F: read-out: Clearance CLz/F; for half-life: read-out: Half-life T1/2 (converted); for Cmax: read-out: Plasma concentration Cmax; for MRT: read-out: Residence time MRT. The class given is in vivo. The protocol:
Pharmacokinetics assay of the compound of the present invention
Rats were used as test animals. The drug concentration in plasma at different time points was determined by LC/MS/MS method after intragastrical administration of the compound of Example 1, the compound of Example 2, the compound of Example 4, the compound of Example 6, the compound of Example 7, the compound of Example 11, the compound of Example 39, the compound of Example 42, the compound of Example 44, the compound of Example 45 and the compound of Example 47 to rats. The pharmacokinetic behavior and property of the compound of the present invention were studied and evaluated in rats.
44 Healthy adult SD rats (half male and half female, 4 rats/group) were purchased from Shanghai Jiesijie Laboratory Animal Co., LTD, with Certificate No.: SCXK (Shanghai) 2013-0006.
A certain amount of the test compound was weighed, and added with 5% by volume of DMSO, 5% by volume of tween 80 and 90% by volume of normal saline to prepare a 0.2 mg/mL colorless, clear and transparent solution.
After an overnight fast, SD rats were administrated intragastrically with the test compound at an administration dose of 2.0 mg/kg and an administration volume of 10.0 mL/kg.
The rats were intragastrically administrated the compound of Example 1, the compound of Example 2, the compound of Example 4, the compound of Example 6, the compound of Example 7, the compound of Example 11, the compound of Example 39, the compound of Example 42, the compound of Example 44, the compound of Example 45 and the compound of Example 47. 0.1 ml of blood was taken from the orbit before administration and at 0.5, 1.0, 2.0, 4.0, 6.0, 8.0, 11.0 and 24.0 hours after administration. The samples were stored in heparinized tubes, and centrifuged for 10 minutes at 3500 rpm to separate the blood plasma. The plasma samples were stored at −20° C. The rats were fed two hours after administration.
The content of the test compound in the plasma of rats after intragastrical administration of the test compound at different concentrations was determined: 25 μL of rat plasma at each time after administration was taken, added with 40 μL of the internal standard solution of camptothecin (100 ng/mL) and 200 μL of acetonitrile, vortex-mixed for 5 minutes, and centrifuged for 10 minutes (4000 rpm). 0.2 μL of the supernatant was taken from the plasma samples for LC/MS/MS analysis.

The subject of data set [4] is HepG2 cells. The experiment in a line: Effect on in vitro proliferation of HepG2 cells (CellTiter-Glo). The class given is cell-based. The protocol: as §1, §2, §3

The term EC50 denotes the concentration needed to bring the measured effect to its halfway point. Read a low EC50 as a more potent agent. The term Emax denotes the greatest response seen or fitted, relative to the assay's reference. Usually CC50 stands for the concentration that lowers cell viability or growth by half. Broadly, the AUC is the area under the concentration-time curve, a measure of exposure. A word on the MRT: it is the average time that molecules of a dose stay in the body. Take `C[C@H]1Cn2cnc(C(=O)N[C@H](C)C(F)(F)F)c2CN1C(=O)Nc1ccc(F)c(C#N)c1` [Example 11, (S)—N^7-(3-Cyano-4-fluorophenyl)-6-methyl-N^1-((R)-1,1,1-trifluoropropan-2-yl)-5,6-dihydroimidazo[1,5-α]pyrazine-1,7-(8H)-dicarboxamide]: in data set [1] (Hepatitis B virus), the EC50 turned out to be 18 nM and the Emax was found to be 100%. In addition, the CC50 at 72 h in data set [2] was greater than 100000 nM. In data set [3], the Vd/F came to 2.89 ± 0.389 L/kg, the AUC was determined as 10900 ± 4520 ng·h/mL, the bioavailability was determined as 111% and the CL/F was determined as 3.53 ± 1.5 mL/min/kg. For the same compound, in data set [3], the half-life was 11.2 ± 5.63 h, the Cmax came out at 597 ± 64 ng/mL and the MRT came out at 16.3 ± 7.6 h.
As to `C[C@H]1Cn2nnc(C(=O)N[C@H](C)C(F)(F)F)c2CN1C(=O)Nc1ccc(F)c(F)c1` [Example 39, (S)—N^5-(3,4-Difluorophenyl)-6-methyl-N^3-((R)-1,1,1-trifluoropropan-2-yl)-6,7-dihydro-[1,2,3]triazolo[1,5-α]pyrazine-3,5(4H)-dicarboxamide], in data set [1], the “Emax (effect value of the compound to maximally inhibit HBV DNA replication)” value is reported as 100% and the response was half-maximal at 19 nM (EC50). Besides, the CC50 in data set [4] (HepG2 cells, 72 hours, CellTiter-Glo, read-out: CC50) is greater than 100000 nM. Further, in data set [3], the “Area under curve AUC” value worked out at 8105 ± 1585 ng·h/mL, the “Bioavailability (%) F %” value is on record as 114%, the “Clearance CLz/F” value was 4.21 ± 0.69 mL/min/kg and the “Half-life T1/2” value came out at 6.49 ± 1.71 h. In data set [3], the “Plasma concentration Cmax” value is 682 ± 168 ng/mL and the “Residence time MRT” value is 9.82 ± 1.75 h.
As for `C[C@@H]1CN(C(=O)Nc2ccc(F)c(F)c2)Cc2c(C(=O)N[C@H](C)C(F)(F)F)nnn21` [Example 42, (R)—N^5-(3,4-Difluorophenyl)-7-methyl-N^3-((R)-1,1,1-trifluoropropan-2-yl)-6,7-dihydro-[1,2,3]triazolo[1,5-α]pyrazine-3,5(4)-dicarboxamide], in data set [1] (Hepatitis B virus), a half-maximal effect (EC50) was put at 75 nM and the Emax was 100%. The same compound showed a CC50 at 72 h in data set [2] greater than 100000 nM. Moreover, in data set [3], the Vd/F was 5.96 ± 1.22 L/kg, the AUC was 7380 ± 3180 ng·h/mL, the bioavailability came out at 87% and the CL/F amounted to 5.3 ± 2.47 mL/min/kg. Also, in data set [3], the half-life is 15.9 ± 8.9 h, the Cmax came to 433 ± 102 ng/mL and the MRT was found to be 22.1 ± 12.4 h.
Regarding `C[C@H](NC(=O)c1nnn2c1CN(C(=O)Nc1ccc(F)c(F)c1)[C@@H](C)C2)C(F)(F)F` [Example 43, (S)—N^5-(3,4-Difluorophenyl)-6-methyl-N^3—((S)-1,1,1-trifluoropropan-2-yl)-6,7-dihydro-[1,2,3]triazolo[1,5-α]pyrazine-3,5(4-)-dicarboxamide], in data set [1], the “Emax (effect value of the compound to maximally inhibit HBV DNA replication)” value came to 99% and the EC50 amounted to 39 nM. The compound also displayed a CC50 in data set [4] greater than 100000 nM.
As to `C[C@@H]1CN(C(=O)Nc2ccc(F)c(C#N)c2)Cc2c(C(=O)N[C@H](C)C(F)(F)F)nnn21` [Example 44, (R)—N^5-(3-Cyano-4-fluorophenyl)-7-methyl-N^3-((R)-1,1,1-trifluoropropan-2-yl)-6,7-dihydro-[1,2,3]triazolo[1,5-α]pyrazine-3,5(4H)-dicarboxamide], in data set [1] (Hepatitis B virus), the EC50 is 60 nM and the Emax came to 99%. This compound also yielded a CC50 at 72 h in data set [2] greater than 100000 nM. In data set [3], the Vd/F was determined as 4.13 ± 0.26 L/kg, the AUC was 11800 ± 3100 ng·h/mL, the bioavailability worked out at 94% and the CL/F came to 2.99 ± 0.78 mL/min/kg. Moreover, in data set [3], the half-life was 17 ± 5.05 h, the Cmax came out at 509 ± 39.4 ng/mL and the MRT was determined as 24.2 ± 7.38 h.
For `C[C@@H]1CN(C(=O)Nc2ccc(F)c(C#N)c2)Cc2c(C(=O)N[C@H](C)C(F)(F)F)ncn21` [Example 47, (R)—N^7-(3-Cyano-4-fluorophenyl)-5-methyl-N^1-((R)-1,1,1-trifluoropropan-2-yl)-5,6-dihydroimidazo[1,5-α]pyrazine-1,7(8H)-dicarboxamide], in data set [1] (Hepatitis B virus), the midpoint of the response, the EC50, lay at 82 nM and the Emax came to 100%. In addition, the CC50 at 72 h in data set [2] was greater than 100000 nM. Also, in data set [3], the Vd/F came to 5.69 ± 2.24 L/kg, the AUC turned out to be 7260 ± 3050 ng·h/mL, the bioavailability amounted to 125% and the CL/F amounted to 5.4 ± 2.69 mL/min/kg. Besides, in data set [3], the half-life was 13.1 ± 4.3 h, the Cmax turned out to be 462 ± 94 ng/mL and the MRT is 17.7 ± 6.3 h.
